Results reported in patent US20090131702A1, “METHOD FOR THE PRODUCTION OF METAL CARBOXYLATES AND THE METAL AMINOATE OR METAL HYDROXY ANALOGUE METHIONATE DERIVATIVES THEREOF, AND USE OF SAME AS GROWTH PROMOTERS IN ANIMAL FEED” (NOREL, S.A., priority 2003, published 2009).
Read-outs that look alike come from different tables or passages of the source. Marks after values point to notes of the source that are not given here.

Assays:
[1] = Test of efficacy in piglets: production parameters, copper glycinate / formate / complex (Example 15); assay type: in vivo; conditions: 21-42 days, 125 ppm of copper added to base diet
Text: (§2) Control of production parameters was effected at the end of the experiment, recording the live weight, the daily growth and the consumption of feed.

[2] = Test in broilers: production parameters, copper methioninate / formate / complex (Example 13); assay type: in vivo, broilers of the Ross strain; conditions: for MDC (mean daily consumption) / MDG (mean daily gain) / IC (index of conversion): 25 ppm of copper added to base diet; for LW 21 d (live weight): day 21, 25 ppm of copper added to base diet; for LW 42 d (live weight): day 42, 25 ppm of copper added to base diet
Experimental: Four experimental treatments were used, comprising the same basic diet supplemented with different sources of copper:
The dose of copper was calculated taking into account the copper content of the ingredients and the copper requirements in the case of treatments T-0 to T-3.
(§1) Control of production parameters was effected at 21 and 42 days of age, recording the live weight and the consumption of feed per batch.

[3] = broilers; for LW 21 d (live weight): day 21; for LW 42 d (live weight): day 42
[4] = broilers
[5] = broilers; remark: listed apart in the source
Experimental: During the next 4 days, an investigation of the bioavailability of the copper was carried out. After fasting for 20 hours, the live weight per cage was recorded and the experimental feeds were supplied for 2 days, recording the consumption of feed.

[6] = Test of efficacy in piglets: production parameters, zinc glycinate / formate / complex (Example 14); assay type: in vivo; conditions: 21-50 days, 130 ppm of zinc added to base diet
Text: The experimental period was 29 days.

[7] = Test in broilers: production parameters, zinc methioninate / formate / complex (Example 12); assay type: in vivo, broilers of the Ross strain; conditions: for MDC (mean daily consumption) / MDG (mean daily gain) / IC (index of conversion): 50 ppm of zinc added to base diet; for effect on production parameters (in words): 50 ppm of zinc, control T-0 = zinc sulfate; for LW 21 d (live weight): day 21, 50 ppm of zinc added to base diet; for LW 42 d (live weight): day 42, 50 ppm of zinc added to base diet
Text: Four experimental treatments were used, comprising the same basic diet supplemented with different sources of zinc:
as §1

[8] = Zinc concentration in the liver of piglets (Example 11); assay type: in vivo; conditions: for Liver zinc / Ratio Zn in liver/Zn in diet: end of 21-day experiment, 220 ppm of zinc added to base diet
Text: At the end of the experiment, one male and one female were selected at random from each batch to take a specimen of liver tissue and determine the zinc content.

[9] = broilers, 150 ppm of zinc added to base diet
Text: 160 one-day old broilers of the Ross strain were used (without differentiation of sexes), housed in cages in groups of 10 animals.
Control of production parameters was effected at 21 days of age, recording the live weight and the consumption of feed per batch.

[10] = piglets, 220 ppm of zinc added to base diet; for LW 28 d (live weight): day 28; for LW 42 d (live weight): day 42
Experimental: 300 piglets were used (cross of Large White and Landrace), 50% males and 50% females, weaned at 21 days of age and housed in 30 pens with 10 animals in each (5 males and 5 females).
Five experimental treatments were used, comprising the same basic diet, to which different sources of zinc are added:
The zinc dose was calculated taking into account the zinc content of the ingredients of the feed and the maximum permitted dose (250 ppm of zinc in the finished feed) in the case of treatments T-0 to T-2, and the dose with promoter effect (2000 ppm) in the case of treatment T-3.
The experimental period was 21 days.
The experimental model was a design of random blocks, with 6 replications per treatment. Each replication comprised a batch of 10 animals.
as §2

[11] = broilers; for Zinc excreted / Zinc ingested / Bioavailability: 43 to 46 days of age, 50 ppm of zinc added to base diet; for zinc bioavailability (in words): 50 ppm of zinc; for Bioavailability: zinc
[12] = piglets, 21-41 days; 150 ppm of zinc added to base diet
Experimental: 24 piglets were used (Large White*Large White×Landrace), 50% males and 50% females, weaned at 21 days of age and housed in 4 pens with 6 animals in each (3 males and 3 females).
The zinc dose was calculated taking into account the zinc content of the ingredients and the maximum permitted dose (150 ppm) in all the treatments.
The experimental period was 20 days.
as §2

[13] = 0-21 days, 20 ppm of copper added to base diet
[14] = 0-21 days, 150 ppm of copper added to base diet
[15] = 0-42 days, 20 ppm of copper added to base diet
[16] = 0-42 days, 150 ppm of copper added to base diet
[17] = 21-42 days, 20 ppm of copper added to base diet
[18] = 21-42 days, 150 ppm of copper added to base diet
[19] = 20 ppm of copper added to base diet
[20] = 150 ppm of copper added to base diet
[21] = 43 to 46 days of age, 25 ppm of copper added to base diet
[22] = 43 to 46 days of age, 20 ppm of copper added to base diet
[23] = 43 to 46 days of age, 150 ppm of copper added to base diet

## NCC(=O)[O-].NCC(=O)[O-].[Cu+2] [copper glycinate]
[1]
  GLW 21-42 d (gain in live weight): 7.25 b kg
  IC (index of conversion): 1.91 b
  MDC (mean daily consumption): 660.5 g/day
  MDG (mean daily gain): 345.0 b g

## O=S(=O)([O-])[O-].[Cu+2] [copper sulfate]
[2]; 0-21 days
  MDC (mean daily consumption): 45.3 g/day
  MDG (mean daily gain): 31.6 a g
[2]; 0-42 days
  MDC (mean daily consumption): 102.7 g/day
  MDG (mean daily gain): 51.6 a g
[2]; 21-42 days
  MDC (mean daily consumption): 160.1 g/day
  MDG (mean daily gain): 71.6 a g
[2]
  LW 21 d (live weight): 695 a g
  LW 42 d (live weight): 2200 a g
[3]; [13]
  MDC (mean daily consumption): 48.9 g/day
  MDG (mean daily gain): 34.2 a g
[3]; [14]
  MDC (mean daily consumption): 49.7 g/day
  MDG (mean daily gain): 35.9 b g
[3]; [15]
  MDC (mean daily consumption): 98.2 g/day
  MDG (mean daily gain): 50.6 a g
[3]; [16]
  MDC (mean daily consumption): 99.5 g/day
  MDG (mean daily gain): 55.2 b g
[3]; [17]
  MDC (mean daily consumption): 149.3 g/day
  MDG (mean daily gain): 69.2 a g
[3]; [18]
  MDC (mean daily consumption): 154.2 g/day
  MDG (mean daily gain): 76.7 b g
[3]; [19]
  LW 21 d (live weight): 716 a g
  LW 42 d (live weight): 2172 a g
[3]; [20]
  LW 21 d (live weight): 756 b g
  LW 42 d (live weight): 2362 b g
[4]; [21]
  Copper excreted: 20.4^a mg
  Copper ingested: 67.98^a mg
[1]
  GLW 21-42 d (gain in live weight): 6.5 a kg
  MDC (mean daily consumption): 650.5 g/day
  MDG (mean daily gain): 309.5 a g
[5]; [22]
  Copper excreted: 4.08^a mg
  Copper ingested: 7.3^a mg
[5]; [23]
  Copper excreted: 397.3^b mg
  Copper ingested: 652.4^b mg

## O=C[O-].O=C[O-].[Zn+2] [zinc formate, Zinc formate]
[6]
  GLW 21-50 d (gain in live weight): 12.50 b kg
  MDC (mean daily consumption): 752.3 g/day
  MDG (mean daily gain): 431.0 b g
[7]; 0-21 days
  MDC (mean daily consumption): 48.3 g/day
  MDG (mean daily gain): 35.2 b g
[7]; 0-42 days
  MDC (mean daily consumption): 100.4 g/day
  MDG (mean daily gain): 55.0 b g
[7]; 21-42 days
  MDC (mean daily consumption): 152.5 g/day
  MDG (mean daily gain): 74.8 b g
[7]
  effect on production parameters (in words): same effect
  LW 21 d (live weight): 740 b g
  LW 42 d (live weight): 2310 b g
[8]
  Liver zinc: 59.21a μg/g
[9]; 0-21 days
  MDC (mean daily consumption): 47.5 g/day
  MDG (mean daily gain): 37.6 b g
[9]; day 21
  LW 21 d (live weight): 790 b g
[10]; 21-28 days
  MDC (mean daily consumption): 312.3 g/day
  MDG (mean daily gain): 268.6 B g
[10]; 21-42 days
  MDC (mean daily consumption): 752.3 g/day
  MDG (mean daily gain): 512.6 b g
[10]
  LW 28 d (live weight): 8.76 ab kg
  LW 42 d (live weight): 14.30 b kg
[11]
  Zinc excreted: 7.20^b mg
  Zinc ingested: 13.3^a mg
  zinc bioavailability (in words): highest bioavailability
  Bioavailability: 45.8^b %
[12]
  GLW 21-41 d (gain in live weight): 8.00 b kg
  MDC (mean daily consumption): 655.0 g/day
  MDG (mean daily gain): 400.0 b g

## NCC(=O)[O-].NCC(=O)[O-].[Zn+2] [zinc glycinate]
[6]
  GLW 21-50 d (gain in live weight): 12.75 b kg
  IC (index of conversion): 1.68 b
  MDC (mean daily consumption): 741.3 g/day
  MDG (mean daily gain): 439.6 b g

## [O]=[Zn] [zinc oxide]
[6]
  GLW 21-50 d (gain in live weight): 11.40 a kg
  IC (index of conversion): 2.02 a
  MDC (mean daily consumption): 795.3 g/day
  MDG (mean daily gain): 393.1 a g
[8]; dose of 220 ppm
  liver zinc concentration (in words): lowest
[8]
  Liver zinc: 47.63a μg/g
  Ratio Zn in liver/Zn in diet: 19.8ab
[10]; 21-28 days
  IC (index of conversion): 1.32 a
  MDC (mean daily consumption): 321.7 g/day
  MDG (mean daily gain): 244.5 A g
[10]; 21-42 days
  IC (index of conversion): 1.67 a
  MDC (mean daily consumption): 795.3 g/day
  MDG (mean daily gain): 475.3 a g
[10]
  LW 28 d (live weight): 8.41 A kg
  LW 42 d (live weight): 13.11 a kg

## O=S(=O)([O-])[O-].[Zn+2] [zinc sulfate]
[7]; 0-21 days
  MDC (mean daily consumption): 47.3 g/day
  MDG (mean daily gain): 33.6 a g
[7]; 0-42 days
  MDC (mean daily consumption): 101.7 g/day
  MDG (mean daily gain): 53.5 a g
[7]; 21-42 days
  MDC (mean daily consumption): 156.3 g/day
  MDG (mean daily gain): 73.6 a g
[7]
  LW 21 d (live weight): 705 a g
  LW 42 d (live weight): 2250 a g
[11]
  Zinc excreted: 8.34^a mg
  Zinc ingested: 12.4^a mg

## Copper butyrate
[3]; [13]
  IC (index of conversion): 1.35 b
  MDC (mean daily consumption): 48.9 g/day
  MDG (mean daily gain): 36.2 b g
[3]; [15]
  IC (index of conversion): 1.76 b
  MDC (mean daily consumption): 97.2 g/day
  MDG (mean daily gain): 55.1 b g
[3]; [17]
  IC (index of conversion): 1.94 b
  MDC (mean daily consumption): 147.2 g/day
  MDG (mean daily gain): 75.9 b g
[3]; [19]
  LW 21 d (live weight): 763 b g
  LW 42 d (live weight): 2358 b g
[5]; [22]
  Copper excreted: 2.99^a mg
  Copper ingested: 7.3^a mg
[5]; 20 ppm of copper
  copper bioavailability (in words): highest bioavailability
[5]; copper, 43 to 46 days of age, 20 ppm of copper added to base diet
  Bioavailability: 59.09^b %

## Zinc butyrate
[8]; 220 ppm of zinc
  ratio of zinc in the liver to zinc in the diet (in words): highest ratio
[8]
  Liver zinc: 56.3a μg/g
  Ratio Zn in liver/Zn in diet: 22.3bc
[10]; 21-28 days
  IC (index of conversion): 1.09 b
  MDC (mean daily consumption): 286.3 g/day
  MDG (mean daily gain): 262.9 ab g
[10]; 21-42 days
  IC (index of conversion): 1.45 b
  MDC (mean daily consumption): 741.3 g/day
  MDG (mean daily gain): 509.6 b g
[10]
  LW 28 d (live weight): 8.99 B kg
  LW 42 d (live weight): 14.15 b kg

## copper methioninate
[2]; 0-21 days
  IC (index of conversion): 1.36 b
  MDC (mean daily consumption): 47.1 g/day
  MDG (mean daily gain): 34.7 b g
[2]; 0-42 days
  IC (index of conversion): 1.86 b
  MDC (mean daily consumption): 100.5 g/day
  MDG (mean daily gain): 54.0 b g
[2]; 21-42 days
  IC (index of conversion): 2.08 b
  MDC (mean daily consumption): 154.0 g/day
  MDG (mean daily gain): 73.8 b g
[2]; 25 ppm of copper, control T-0 = copper sulfate
  effect on production parameters (in words): same effect
[2]
  LW 21 d (live weight): 750 b g
  LW 42 d (live weight): 2300 b g
[4]; [21]
  Copper excreted: 29.5^b mg
  Copper ingested: 69.3^a mg
[4]; 25 ppm of copper
  copper bioavailability (in words): highest bioavailability
[4]; copper, 43 to 46 days of age, 25 ppm of copper added to base diet
  Bioavailability: 42.6^b %

## zinc methioninate
[7]; 0-21 days
  IC (index of conversion): 1.35 b
  MDC (mean daily consumption): 48.1 g/day
  MDG (mean daily gain): 35.7 b g
[7]; 0-42 days
  IC (index of conversion): 1.82 b
  MDC (mean daily consumption): 101.7 g/day
  MDG (mean daily gain): 55.7 b g
[7]; 21-42 days
  IC (index of conversion): 2.05 b
  MDC (mean daily consumption): 155.2 g/day
  MDG (mean daily gain): 75.7 b g
[7]
  effect on production parameters (in words): same effect
  LW 21 d (live weight): 750 b g
  LW 42 d (live weight): 2340 b g
[11]
  Zinc excreted: 7.35^b mg
  Zinc ingested: 12.6^a mg
  zinc bioavailability (in words): highest bioavailability
  Bioavailability: 42.6^b %
